Here are results for five compounds from patent publication US20250189537A1, “MULTI-FLUORESCENCE MICROFLUIDIC PLATFORM FOR EVALUATING RISKS OF SHEAR-DRIVEN ARTERIAL THROMBOSIS AND FAST ANTITHROMBOTIC DRUG SCREENING” (Board of Regents, The University of Texas System, priority 2023, published 2025).

Series [1] has as its system biomechanical platelet aggregation. Description: Microfluidic stenosis assay (thrombus size, single fluorescence imaging). To be noted: for thrombus formation: replacing heparin for anticoagulation; for inhibition to the biomechanical thrombogenesis: separately and combined at twice or 20 times of human plasmatic concentrations. Type of series: cell-based, human. As to the method:
Microfluidic devices with single-hump stenosis microchannels can be coated with VWF monomer solution. Heparin added whole blood is incubated with DiOC6 (3), or with a set of predetermined sensors. As used herein, a sensor is a compound or protein (e.g., antibody) that specifically binds a selected molecule, peptide, or protein present in a thrombus, the sensor can optionally include a detectable tag. A detectable tag can include but is not limited to a fluorescent tag. In certain aspects a first sensor set (Sensor Set 1) can include one or more of SZ22-FITC, Fg-Alexa Fluor® 405, 2.2.9-Alexa Fluor® 555 and AK4-Alexa Fluor® 647. In certain aspects a second sensor set (Sensor Set 2) can include SZ22-FITC, Annexin V-Pacific Blue, MBC 370.2-Alexa Fluor® 555 and PAC-1-Alexa Fluor® 647. A thrombogenic sample, e.g., blood, can be introduced via a reservoir at a microchannel inlet and perfused through the microchannel at a predetermined flow rate. In certain aspects the sample is moved through the microchannel using a pump withdraw mode via a syringe or similar apparatus connected to a microchannel outlet. The microchannel at the site of stenosis can be recorded in real time with multi-fluorescence imaging using appropriate equipment. In certain aspects the multi-fluorescence imaging is performed with a LED5 fluorescence light source and a multi-pass filter (excitation-emission: 391/32-435/30, 479/33-519/25, 554/24-594/32 and 638/31-695/58 nm). Autofluorescence of platelets can be detected in the 391/32-435/30 nm channel (Lohmann and Lohmann, Biochemical and biophysical research communications 152, 1410-1415, 1988), the signal intensity of which can be subtracted when calculating signals from other sensors.
Thrombus profiling assay: development and validation. Each microfluidic chip is composed of 10 rectangular (width×height: 200 μm×50 μm) channels with respective inlets and outlets for tubing connection (FIG. 1A, 1B). A pump drives a syringe to perfuse heparinized blood (0.5 mL) through the channel pre-coated with VWF. An 80% stenosis site stimulates biomechanical thrombogenesis (FIG. 1C). A perfusion rate of 18 μL min^−1 was selected, which creates a wall shear stress (WSS) of 857 dyn cm^−2 at the stenosis site according to fluid dynamics simulation (FIG. 1D). The same stenosis site WSS is achieved by an inlet wall shear rate of 1485 s-1 in a circular vessel with the same cross-sectional area, mimicking human arterioles (Yakusheva et al. Blood advances 6, 4834-46), human arteries during systole, and mouse arteries (Panteleev et al., Journal of thrombosis and haemostasis JTH 19, 588-95). The calculated Reynolds numbers in channels of different shapes are also within the same scale. […]

Series [2] relates to ADP or collagen-induced platelet aggregation. The settings on record: at much lower concentrations; cited from earlier work.
For series [3] the following is noted: phase III trials; cited from earlier work.

The structures appear in SMILES notation. Where a name gives a salt, the structure may show the parent alone.

For the compound `O=C(O)CN(CCN(CC(=O)O)CC(=O)O)CC(=O)O` [EDTA, ethylenediaminetetraacetic acid], the thrombus formation result in series [1] is “attenuated”.

For the compound `CC(=O)Oc1ccccc1C(=O)O` [aspirin], in series [1], the “inhibition to the biomechanical thrombogenesis” value is on record as “negligible inhibition”. Further, in series [2], the “inhibition of ADP or collagen-induced platelet aggregation” value is listed as “significantly inhibit”. Consider `O=C(O)CC(O)(CC(=O)O)C(=O)O` [citrate, sodium citrate], for which, in series [1], the thrombus formation result is “attenuated”. Regarding `COC(=O)[C@H](c1ccccc1Cl)N1CCc2sccc2C1` [clopidogrel], the “inhibition to the biomechanical thrombogenesis” value in series [1] is listed as “negligible inhibition”. Moreover, the “inhibition of ADP or collagen-induced platelet aggregation” value in series [2] is recorded as “significantly inhibit”. Take `CCOC(=O)CCNC(=O)N[C@H]1CCN(c2ccc(C(=N)N)cc2)C1=O` [orbofiban]: in series [3], the “patient mortality vs placebo” value is “significantly increased”.
